Usually Kd stands for the concentration at which binding is half-saturated. A low value points to higher affinity. The Ki is the equilibrium dissociation constant of an inhibitor or competing ligand from its target. Low readings indicate tighter binding, high ones weaker binding.

Molecules are shown by their SMILES. “And” between values parts separate entries of the source, which are not always exact repeats. Identical values can stand only once. Square brackets hold non-standard residues; d marks the D form. Peptide text beside a SMILES is read from it. * marks the point of attachment. Acetyl(9-fluorenyl) = O=C(CC1c2ccccc2-c2ccccc21)*; Anthracene1carbonyl = O=C(c1cccc2cc3ccccc3cc12)*; 1Naphthoyl = O=C(c1cccc2ccccc12)*; Hyp = O=C(O)[C@@H]1C[C@@H](O)CN1; Aad = N[C@@H](CCCC(=O)O)C(=O)O; Cba = N[C@@H](CC1CCC1)C(=O)O; Nva = CCC[C@H](N)C(=O)O; Dha = C=C(N)C(=O)O

Assay [1] addresses T1, MBP-16E6 (Human papillomavirus 16, UniProt P03126, C104S/C118S/C147S/C87S).
Assay [2] deals with T1, MBP-16E6. The assay is described as follows: biochemical.
[3] abbreviates: KD, nM, TABLE 2B, BLI competition.

T1 sequence (P03126 whole entry C104S/C118S/C147S/C87S, looked up): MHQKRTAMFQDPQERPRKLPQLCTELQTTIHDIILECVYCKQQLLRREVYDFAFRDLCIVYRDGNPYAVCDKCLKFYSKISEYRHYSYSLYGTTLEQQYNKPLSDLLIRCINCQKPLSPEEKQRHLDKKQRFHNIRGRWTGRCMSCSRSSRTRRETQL

Regarding `CC[C@H](C)[C@H](NC(=O)CC1c2ccccc2-c2ccccc21)C(=O)N1CCC[C@H]1C(=O)N[C@@H](CCC(=O)O)C(=O)N[C@@H](CO)C(=O)N[C@@H](C)C(=O)N[C@@H](CCC(=O)O)C(=O)N[C@@H](CC(C)C)C(=O)N[C@H](C(=O)N[C@@H](C)C(=O)N[C@@H](CCC(N)=O)C(=O)N[C@@H](CCC(=O)O)C(=O)N[C@@H](C)C(=O)N[C@@H](C)C(=O)NCC(=O)N[C@@H](CCC(=O)O)C(=O)N[C@@H](CCC(=O)O)C(=O)N[C@@H](CCCNC(=N)N)C(=O)N[C@@H](CCCNC(=N)N)C(=O)N[C@@H](C)C(=O)N[C@@H](C)C(=O)N[C@@H](CCCCNC(=O)c1cccc2cc3ccccc3cc12)C(N)=O)[C@@H](C)O` [6′-3L3A] ({Acetyl(9-fluorenyl)}-IPESAELTAQEAAGEERRAAK(Anthracene1carbonyl)-NH2), the “KD, nM” value on MBP-16E6 [1] (TABLE 2B, BLI competition) is reported as “n.b”.

`CC[C@H](C)[C@H](NC(=O)CC1c2ccccc2-c2ccccc21)C(=O)N1CCC[C@H]1C(=O)N[C@@H](CCC(=O)O)C(=O)N[C@@H](CO)C(=O)N[C@@H](CO)C(=O)N[C@@H](CCC(=O)O)C(=O)N[C@@H](CC(C)C)C(=O)N[C@H](C(=O)N[C@@H](CC(C)C)C(=O)N[C@@H](CCC(N)=O)C(=O)N[C@@H](CCC(=O)O)C(=O)N[C@@H](CC(C)C)C(=O)N[C@@H](CC(C)C)C(=O)NCC(=O)N[C@@H](CCC(=O)O)C(=O)N[C@@H](CCC(=O)O)C(=O)N[C@@H](CCCNC(=N)N)C(=O)N[C@@H](CCCNC(=N)N)C(=O)N[C@@H](C)C(=O)N[C@@H](C)C(=O)N[C@@H](CCCCNC(=O)CC1c2ccccc2-c2ccccc21)C(N)=O)[C@@H](C)O` [Entry 2] ({Acetyl(9-fluorenyl)}-IPESSELTLQELLGEERRAAK(Acetyl(9-fluorenyl))-NH2): on MBP-16E6 [2] (setting [3]), the dissociation constant Kd was 8.6 ± 3.2 nM. Take `CC[C@H](C)[C@H](NC(=O)CC1c2ccccc2-c2ccccc21)C(=O)N1CCC[C@H]1C(=O)N[C@@H](CCC(=O)O)C(=O)N[C@@H](CO)C(=O)N[C@@H](CO)C(=O)N[C@@H](CCC(=O)O)C(=O)N[C@@H](CC(C)C)C(=O)N[C@H](C(=O)N[C@@H](CC(C)C)C(=O)N[C@@H](CCC(N)=O)C(=O)N[C@@H](CCC(=O)O)C(=O)N[C@@H](CC(C)C)C(=O)N[C@@H](CC(C)C)C(=O)NCC(=O)N[C@@H](CCC(=O)O)C(=O)N[C@@H](CCC(=O)O)C(=O)N[C@@H](CCCNC(=N)N)C(=O)N[C@@H](CCCNC(=N)N)C(=O)N[C@@H](C)C(=O)N[C@@H](C)C(=O)N[C@@H](CCCCNC(=O)c1cccc2ccccc12)C(N)=O)[C@@H](C)O` [Entry 4] ({Acetyl(9-fluorenyl)}-IPESSELTLQELLGEERRAAK(1Naphthoyl)-NH2): the Kd at MBP-16E6 [2] (setting [3]) amounted to 47 ± 7.4 nM.

For the compound `CC[C@H](C)[C@H](NC(=O)CC1c2ccccc2-c2ccccc21)C(=O)N1CCC[C@H]1C(=O)N[C@@H](CCC(=O)O)C(=O)N[C@@H](CO)C(=O)N[C@@H](CO)C(=O)N[C@@H](CCC(=O)O)C(=O)N[C@@H](CC(C)C)C(=O)N[C@H](C(=O)N[C@@H](CC(C)C)C(=O)N[C@@H](CCC(N)=O)C(=O)N[C@@H](CCC(=O)O)C(=O)N[C@@H](CC(C)C)C(=O)N[C@@H](CC(C)C)C(=O)NCC(=O)N[C@@H](CCC(=O)O)C(=O)N[C@@H](CCC(=O)O)C(=O)N[C@@H](CCCNC(=N)N)C(=O)N[C@@H](CCCNC(=N)N)C(=O)N[C@@H](C)C(=O)N[C@@H](C)C(=O)N[C@@H](CCCCNC(=O)c1cccc2cc3ccccc3cc12)C(N)=O)[C@@H](C)O` [Entry 6] ({Acetyl(9-fluorenyl)}-IPESSELTLQELLGEERRAAK(Anthracene1carbonyl)-NH2), at MBP-16E6 [2] (setting [3]), the affinity, expressed as Kd, was 3.7 ± 1.9 nM. `CC[C@H](C)[C@H](N)C(=O)N1CCC[C@H]1C(=O)N[C@@H](CCC(=O)O)C(=O)N[C@@H](CO)C(=O)N[C@@H](CO)C(=O)N[C@@H](CCC(=O)O)C(=O)N[C@@H](CC(C)C)C(=O)N[C@H](C(=O)N[C@@H](CC(C)C)C(=O)N[C@@H](CCC(N)=O)C(=O)N[C@@H](CCC(=O)O)C(=O)N[C@@H](CC(C)C)C(=O)N[C@@H](CC(C)C)C(=O)NCC(=O)N[C@@H](CCC(=O)O)C(=O)N[C@@H](CCC(=O)O)C(=O)N[C@@H](CCCNC(=N)N)C(=O)N[C@@H](CCCNC(=N)N)C(N)=O)[C@@H](C)O` [Peptide 1]: the Kd on MBP-16E6 [2] (setting [3]) is 2450 ± 513 nM; at MBP-16E6 [2] (competition KD, BLI competition with 1-biotin, 30 nM MBP-16E6), 2300 nM and 2400 nM. Take `C=C(NC(=O)[C@H](C)NC(=O)[C@H](C)NC(=O)[C@H](CCC(=O)O)NC(=O)[C@H](CCC(N)=O)NC(=O)[C@H](C)NC(=O)[C@@H](NC(=O)[C@H](CC(C)C)NC(=O)[C@H](CCC(=O)O)NC(=O)[C@H](C)NC(=O)[C@H](CO)NC(=O)[C@H](CCC(N)=O)NC(=O)[C@@H]1CCCN1C(=O)[C@@H](NC(=O)CC1c2ccccc2-c2ccccc21)[C@@H](C)CC)[C@@H](C)O)C(=O)N[C@@H](CCCNC(=N)N)C(=O)N[C@@H](CCCNC(=N)N)C(=O)N[C@@H](CCCCN)C(=O)N[C@@H](CCCCN)C(=O)N[C@@H](CCCCNC(=O)c1cccc2cc3ccccc3cc12)C(N)=O` [Peptide 13-3L3A] ({Acetyl(9-fluorenyl)}-IPQSAELTAQEAA[Dha]RRKKK(Anthracene1carbonyl)-NH2): on MBP-16E6 [1] (TABLE 2C, BLI competition), the “KD in nM” value is given as “n.b”. Further, the “Apparent Ki in nM” value at MBP-16E6 [1] (TABLE 2E, competition with immobilized 1-Biotin following 30 min incubation with 16E6) is “n.b”. Regarding `CC[C@H](C)[C@H](NC(=O)C1CCc2ccccc21)C(=O)N1CCC[C@H]1C(=O)N[C@@H](CCC(=O)O)C(=O)N[C@@H](CO)C(=O)N[C@@H](CO)C(=O)N[C@@H](CCC(=O)O)C(=O)N[C@@H](CC(C)C)C(=O)N[C@H](C(=O)N[C@@H](CC(C)C)C(=O)N[C@@H](CCC(N)=O)C(=O)N[C@@H](CCC(=O)O)C(=O)N[C@@H](CC(C)C)C(=O)N[C@@H](CC(C)C)C(=O)NCC(=O)N[C@@H](CCC(=O)O)C(=O)N[C@@H](CCC(=O)O)C(=O)N[C@@H](CCCNC(=N)N)C(=O)N[C@@H](CCCNC(=N)N)C(N)=O)[C@@H](C)O` (stereo partly shown) [Peptide N3], the “decrease in binding by change of terminal group” value at MBP-16E6 [1] (relative to fluorene-modified N1 / parent modification) is ~ 42 fold.

As for `C=C(NC(=O)[C@H](CCC)NC(=O)[C@H](CC1CCC1)NC(=O)[C@H](CCC(=O)O)NC(=O)CNC(=O)[C@H](CCC)NC(=O)[C@@H]1C[C@@H](O)CN1C(=O)[C@H](CCC)NC(=O)[C@@H](N)CCCC(=O)O)C(=O)N[C@@H](CCC(=O)O)C(=O)N[C@@H](CCC(=O)O)C(=O)N[C@@H](CCCNC(=N)N)C(N)=O` [peptide 3] (H-[Aad][Nva][Hyp][Nva]GE[Cba][Nva][Dha]EER-NH2), the Ki at MBP-16E6 [2] came out at 466 nM. This counts as sub-micromolar. On to `CC[C@H](C)[C@H](NC(=O)CC1c2ccccc2-c2ccccc21)C(=O)N1CCC[C@H]1C(=O)N[C@@H](CCC(=O)O)C(=O)N[C@@H](CO)C(=O)N[C@@H](C)C(=O)N[C@@H](CCC(=O)O)C(=O)N[C@@H](CC(C)C)C(=O)N[C@H](C(=O)N[C@@H](CC(C)C)C(=O)N[C@@H](CCC(N)=O)C(=O)N[C@@H](CCC(=O)O)C(=O)N[C@@H](CC(C)C)C(=O)N[C@@H](CC(C)C)C(=O)NCC(=O)N[C@@H](CCC(=O)O)C(=O)N[C@@H](CCC(=O)O)C(=O)N[C@@H](CCCNC(=N)N)C(=O)N[C@@H](CCCNC(=N)N)C(=O)N[C@@H](C)C(=O)N[C@@H](C)C(=O)N[C@@H](CCCCNC(=O)c1cccc2cc3ccccc3cc12)C(N)=O)[C@@H](C)O` [peptide 6′] ({Acetyl(9-fluorenyl)}-IPESAELTLQELLGEERRAAK(Anthracene1carbonyl)-NH2), for which the Kd on MBP-16E6 [2] (KD in nM, TABLE 2C, BLI competition) was 1.4 ± 0.6 nM; at MBP-16E6 [2] (setting [3]) it was 2.7 ± 1.2 nM; at MBP-16E6 [2] (competition KD, BLI competition, values in text) it was 2.7 nM.

Values taken from US20260297131A1, “COMPOSITIONS AND METHODS FOR PEPTIDE-BASED MODULATORS OF HUMAN PAPILLOMAVIRUS ONCOPROTEIN E6” (priority 2023, published 2026).
